Measured values taken from PubChem BioAssay AID330 (DTP/NCI, 2004).
Values joined by “and” are separate entries in the source; they are usually repeats but may differ in a detail not shown here. Equal values may be shown once. Inconclusive results and toxic doses are left out.

Tested on: P388 leukemia ip, CD2F1 mice, survival T/C
Assay: NCI In Vivo Anticancer Drug Screen. Data for tumor model P388 Leukemia (intraperitoneal) in CD2F1 (CDF1) mice
Settings: endpoint: median survival time, higher = longer survival
Procedure, shortened: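 Mice carrying the transplanted tumor received test compound or vehicle. Survival was recorded in each group, and the value is the treated-group measurement divided by that of the vehicle-treated control group.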

[1] = dose: 50.0 mg/kg/injection, schedule: Q01DX009 (ip), vehicle: saline with Tween-80
[2] = dose: 100.0 mg/kg/injection, schedule: Q01DX009 (ip), vehicle: saline with Tween-80
[3] = dose: 200.0 mg/kg/injection, schedule: Q01DX009 (ip), vehicle: saline with Tween-80
[4] = dose: 25.0 mg/kg/injection, schedule: Q01DX009 (ip), vehicle: water
[5] = dose: 50.0 mg/kg/injection, schedule: Q01DX009 (ip), vehicle: water
[6] = dose: 50.0 mg/kg/injection, schedule: Q01DX009 (ip), vehicle: Klucel (hydroxypropylcellulose) (HPC)
[7] = dose: 100.0 mg/kg/injection, schedule: Q01DX009 (ip), vehicle: Klucel (hydroxypropylcellulose) (HPC)
[8] = dose: 200.0 mg/kg/injection, schedule: Q01DX009 (ip), vehicle: Klucel (hydroxypropylcellulose) (HPC)
[9] = dose: 25.0 mg/kg/injection, schedule: Q04DX003 (ip), vehicle: saline
[10] = dose: 50.0 mg/kg/injection, schedule: Q04DX003 (ip), vehicle: saline

Cn1c2ccccc2c2cnn3c(-c4ccccc4)nnc3c21
T/C (dose: 100.0 mg/kg/injection, schedule: Q01DX001 (ip), vehicle: Klucel (hydroxypropylcellulose) (HPC)): 105 % of control
T/C (dose: 200.0 mg/kg/injection, schedule: Q01DX001 (ip), vehicle: Klucel (hydroxypropylcellulose) (HPC)): 100 % of control
T/C (dose: 400.0 mg/kg/injection, schedule: Q01DX001 (ip), vehicle: Klucel (hydroxypropylcellulose) (HPC)): 100 % of control

CCCCOCC1CO1 (stereo not drawn)
T/C (dose: 25.0 mg/kg/injection, schedule: Q01DX009 (ip), vehicle: saline with Tween-80): 100 % of control
T/C [1]: 100 % of control
T/C [2]: 95 % of control
T/C [3]: 90 % of control

NC(Cc1ccccc1)C(=O)OCN1C(=O)C2C3C=CC(C2C1=O)C1C(=O)N(COC(=O)C(N)Cc2ccccc2)C(=O)C31 (stereo not drawn)
T/C [4]: 100 % of control
T/C [5]: 104 % of control
T/C (dose: 100.0 mg/kg/injection, schedule: Q01DX009 (ip), vehicle: water): 114 % of control
T/C (dose: 200.0 mg/kg/injection, schedule: Q01DX009 (ip), vehicle: water): 124 % of control

O=C(NC(=O)c1ccccc1F)Nc1ccc(C(F)(F)F)cc1
T/C [6]: 102 % of control
T/C [7]: 101 % of control
T/C [8]: 99 % of control

O=S(=O)(O)CNc1ccc(Cl)cc1
T/C [1]: 113 % of control
T/C [2]: 113 % of control
T/C [3]: 106 % of control

CCN(CC)CCC(=O)/C=C/c1ccccc1
T/C (dose: 25.0 mg/kg/injection, schedule: Q01DX009 (ip), vehicle: saline): 111 % of control
T/C (dose: 50.0 mg/kg/injection, schedule: Q01DX009 (ip), vehicle: saline): 116 % of control and 118 % of control

O=C(O)C1C(C(=O)O)C1c1ncnc2nc[nH]c12 (stereo not drawn)
T/C [9]: 99 % of control and 100 % of control
T/C [10]: 100 % of control and 101 % of control
T/C (dose: 100.0 mg/kg/injection, schedule: Q04DX003 (ip), vehicle: saline): 98 % of control and 103 % of control and 100 % of control
T/C (dose: 200.0 mg/kg/injection, schedule: Q04DX003 (ip), vehicle: saline): 103 % of control and 104 % of control
T/C (dose: 400.0 mg/kg/injection, schedule: Q04DX003 (ip), vehicle: saline): 100 % of control and 99 % of control

O=CC(O)C(O)C(O)C(O)CO (stereo not drawn)
T/C (dose: 12.5 mg/kg/injection, schedule: Q04DX003 (ip), vehicle: saline): 108 % of control
T/C [9]: 100 % of control
T/C [10]: 108 % of control
T/C (dose: 60.0 mg/kg/injection, schedule: Q01DX005 (ip), vehicle: saline): 103 % of control
T/C (dose: 120.0 mg/kg/injection, schedule: Q01DX005 (ip), vehicle: saline): 105 % of control
T/C (dose: 240.0 mg/kg/injection, schedule: Q01DX005 (ip), vehicle: saline): 102 % of control
T/C (dose: 1.0 % in 0.5 ml injection vol, schedule: Q01DX009 (ip), vehicle: water): 100 % of control
T/C (dose: 2.0 % in 0.5 ml injection vol, schedule: Q01DX009 (ip), vehicle: water): 103 % of control
T/C (dose: 4.0 % in 0.5 ml injection vol, schedule: Q01DX009 (ip), vehicle: water): 101 % of control
T/C (dose: 8.0 % in 0.5 ml injection vol, schedule: Q01DX009 (ip), vehicle: water): 100 % of control and 105 % of control
T/C (dose: 16.0 % in 0.5 ml injection vol, schedule: Q01DX009 (ip), vehicle: water): 103 % of control and 112 % of control
T/C (dose: 32.0 % in 0.5 ml injection vol, schedule: Q01DX009 (ip), vehicle: water): 98 % of control and 99 % of control

[Cl][Pt][Cl].[NH-]CC(=O)O
T/C [4]: 171 % of control and 185 % of control
T/C [5]: 104 % of control

Cc1ccc(NC(=S)N2CCCC2)cc1C
T/C [6]: 100 % of control and 101 % of control
T/C [7]: 109 % of control
T/C [8]: 91 % of control and 98 % of control

CC1(C)OC2OC(C3COS(=O)O3)C(Cl)C2O1 (stereo not drawn)
T/C (dose: 60.0 mg/kg/injection, schedule: Q01DX005 (ip), vehicle: saline with Tween-80): 107 % of control
T/C (dose: 120.0 mg/kg/injection, schedule: Q01DX005 (ip), vehicle: saline with Tween-80): 113 % of control
T/C (dose: 240.0 mg/kg/injection, schedule: Q01DX005 (ip), vehicle: saline with Tween-80): 114 % of control

COc1cc2c(cc1OC)[C@H](Cc1ccc(Oc3cc4c(cc3O)-c3c(OC)c(OC)cc5c3[C@@H](C4)N(C)CC5)cc1)N(C)CC2
T/C (dose: 11.88 mg/kg/injection, schedule: Q01DX005 (ip), vehicle: Klucel (hydroxypropylcellulose) (HPC)): 98 % of control
T/C (dose: 23.75 mg/kg/injection, schedule: Q01DX005 (ip), vehicle: Klucel (hydroxypropylcellulose) (HPC)): 92 % of control
T/C (dose: 47.5 mg/kg/injection, schedule: Q01DX005 (ip), vehicle: Klucel (hydroxypropylcellulose) (HPC)): 93 % of control
T/C (dose: 95.0 mg/kg/injection, schedule: Q01DX005 (ip), vehicle: Klucel (hydroxypropylcellulose) (HPC)): 105 % of control
